The subject of one series is PI3-kinase. Briefly: PI3-kinase assay in adipocyte lysate. To be noted: adipocytes, 500 μM, 2 h. Type of series: cell-based, rat. How it is done: Phosphatidylinositide (PI) in DMSO (1 mg/ml) was mixed with an equal volume of buffer A (10 mM HEPES, 100 mM NaCl, 1 mM EGTA, 0.03% NP-40, pH 7.0) and then 10 μl was mixed with an equal volume of buffer B (500 μM [γ-^32P] ATP (10 μCi; Amersham Pharmacia Biotech), 25 mM MgCl2, 15 mM 2-(N-morpholine)ethansulfonic acid, pH 6.8). This mixture was added to 30 μl of adipocyte lysate and incubated for 5 min at room temperature. The kinase reaction was stopped by adding 80 μl of 1 N HCl. A mixture of chloroform and ethanol (1:1, 160 μl) was added to the reaction mixture followed by centrifugation at full speed in a microcentrifuge for 2 min, and 40 μl of the organic phase was extracted. The organic phase was spotted on aluminum-backed silica gel 60 thin layer chromatography (TLC) plates that were pre-soaked in developing solvent (chloroform:methanol:2.2 M NH4OH, 9:7:2), run for 3 h in a TLC chamber with the developing solvent, and air-dried. The amount of phosphoinositides was detected by autoradiography.
In FIG. 7A, the intensity of the PIP3 band was normalized with that of PI, and the relative amount of PIP3 was calculated by (normalized band intensity of sample)/(normalized band intensity of control) (lower panel). Data are means±SEM of three independent experiments.

A further series deals with GLUT4. The experiment in a line: GLUT4 translocation, subcellular fractionation and western blot. The series is classed as cell-based, rat. To be noted: 500 μM, 4 h, vs untreated control adipocytes. How it is done: Adipocytes treated with DHH105 for 4 h or insulin for 30 min were washed three times with HES buffer [8 mM HEPES, 250 mM sucrose, 2 mM EDTA, 20 mM NaF, 50 mM NaVO4, 50 mM sodium pyrophosphate, protease inhibitor cocktail (Sigma), and phosphatase inhibitor cocktail (Sigma), pH 7.4]. Adipocytes were homogenized in 20 ml HES buffer with a potter Elvehjem teflon pestle (15 strokes). Homogenates were centrifuged at 1000 g for 10 min and the supernatant was centrifuged again at 16,000 g for 20 min. The resulting pellet was resuspended in 500 μl HES buffer, carefully laid on a discontinuous sucrose gradient (density top to bottom: 1.0592, 1.1270, 1.1533, 1.1764, 1.2575) and centrifuged at 110,000 g for 70 min. The plasma membrane fraction was obtained from the gradient density of 1.1533, diluted in 50 ml HES buffer, and centrifuged at 16,000 g for 20 min. The pellet (plasma membrane fraction) was resuspended in 500 μl HES buffer and stored at −70° C. To obtain the microsomal membrane fraction, the supernatant from the second centrifugation was centrifuged at 220,000 g for 70 min. The pellet was washed, resuspended in 500 μl HES buffer and stored at −70° C. The protein content of each fraction was measured by the Bradford method. […] The membranes were washed and the immunoreactive proteins were detected with an enhanced chemoluminescence western blot detection kit (Amersham Pharmacia Biotech).
For orientation: In western blotting, separated proteins are transferred to a membrane and probed.

Series [1] relates to isolated rat epididymal adipocytes. Briefly: Glucose transport assay (2-DOG uptake). The series is classed as cell-based.
The subject of the next series is IRS-1. The experiment in a line: Phosphorylation of IRS-1 in adipocytes, immunoprecipitation and western blot. Type of series: cell-based. The following applies: SD rat adipocytes, DHH105 2 h, vs untreated control. How it is done: Adipocytes treated with DHH105 for 2 h or insulin for 10 min were homogenized in 5 ml lysis buffer (20 mM Tris, pH 7.4, 1% SDS, 10% glycerol, 150 mM NaCl, 2 mM EDTA, 20 mM NaF, 1 mM NaVO4, 2 mM sodium pyrophosphate, protease inhibitor cocktail, and phosphatase inhibitor cocktail) with a teflon pestle (15 strokes). Homogenized adipocytes were sonicated for 3 min and solubilized for 30 min. The homogenate was centrifuged at 3,000 g for 10 min at 4° C. The protein concentration of the lysate was determined by the Bradford method. After dilution (1 μg/μl protein concentration), the lysates were incubated with anti-insulin receptor-β (IR-β) antibody (Upstate Biotech, Charlottesville, Va.) or anti-IRS-1 antibody (Upstate Biotech) overnight at 4° C. Protein A Sepharose beads (100 μl, Amersham Pharmacia Biotech) were added and the mixture was gently rocked for 2 h at 4° C. […] The membranes were washed and the immunoreactive proteins were detected with an enhanced chemoluminescence western blot detection kit (Amersham Pharmacia Biotech). To examine whether DHH105 treatment increases autophosphorylation of the insulin receptor and its tyrosine kinase activity, the phosphorylation of IR-β and IRS-1 were measured by immunoprecipitation and western blot in DHH105-treated adipocytes from SD rats. […]

Where [2] appears, read: 500 μM, 4 h, 2-DOG 0.125 to 10.0 mM, Lineweaver-Burk.

Experimental findings from patent US7192981B2, “3,4-dihydroxyhydrocinnamic acid derivative” (Bionutrigen Co., Ltd., priority 2005, dated 2007) are described below.

The Km is the concentration of substrate that gives half-maximal velocity.

`O=C(CCc1ccc(O)c(O)c1)OCc1cccc2ccccc12` [DHH105, 3,4-dihydroxyhydrocinnamic acid naphthalene methyl ester]: the “PI3-kinase activity (conversion of PI to PIP3)” value with PI3-kinase is on record as “significantly increased”. Besides, in the series on GLUT4, the “amount of GLUT4 in the microsomal membrane fraction” value is listed as “decreased” and the “immunoreactive GLUT4 in the plasma membrane fraction” value is on record as “increased”. Also, in series [1] (500 μM DHH105 3.5 h, then insulin 30 min), the “effect on insulin-stimulated glucose transport” value is recorded as “did not influence”. Besides, in series [1] (500 μM, 4 h), the “Km value, DHH105-treated vs control adipocytes” value is listed as “no difference”. Moreover, in series [1] (setting [2]), the Km stood at 1780 ± 380 µM and the “Vmax of glucose transport” value was 17.14±0.25 mmol/3 min. The “Vmax of glucose transport relative to untreated control adipocytes” value in series [1] (500 μM, 4 h, Lineweaver-Burk) was 3 fold. Moreover, the “incubation time from which 2-DOG uptake was increased” value in series [1] (rat adipocytes, 500 μM) is listed as 1 h. For the same molecule, the “increase of glucose transport vs untreated control at optimum concentration” value in series [1] (rat adipocytes, 4 h, DHH105 500 μM, glyburide 25 μM, metformin 250 μM, troglitazone 100 μM) stood at 4 fold. The “concentration at which 2-DOG uptake peaked” value in series [1] (rat adipocytes, 4 h treatment) was 500 µM. In addition, in series [1] (rat adipocytes, doses of 500 μM or more), the “effect on glucose transport compared with other anti-diabetic drugs” value is reported as “significantly higher effect”. In the series on IRS-1, the “phosphorylation of IRS-1” value is recorded as “increased”.
